{"source": "patent US7833553B2", "about": "“Sulfur-containing proanthocyanidin oligomer compositon and process for producing the same” (Amino Up Chemical Co. Ltd., priority 2003, dated 2010)", "key": {"[1]": {"assay": "DPPH radical scavenging effect", "type": "biochemical", "settings": "60 μM DPPH, room temperature 30 minutes, absorbance 520 nm", "description": "100 μl of a DPPH solution (60 μM ethanol solution) was charged in a 96-well microplate and 100 μl of an ethanol solution as a test sample or 100 μl of ethanol as a control was added, and the whole was gently mixed and left to stand at room temperature for 30 minutes. Then, absorbance at 520 nm was measured and a DPPH radical scavenging ability was calculated according to the following formula. 50% effective concentration (EC50) was calculated from the DPPH radical scavenging ability and concentrations of gradually diluted test samples. DPPH radical scavenging ability(%)=[(1−(absorbance of test sample))/(absorbance of control)]×100\n50% effective concentration (EC50) was calculated from DPPH radial scavenging abilities in gradual concentrations of each sample."}, "[2]": {"assay": "Superoxide dismutase (SOD)-like activity (SOD Test Wako kit)", "type": "biochemical", "description": "With respect to Substances 1 to 4 and Comparative Substances 1 and 2 which were the same as those used in Test Example 1, SOD-like activity was measured using a blood SOD activity measuring kit (SOD Test Wako: manufactured by Wako Pure Chemical Industries, Ltd.). SOD-like activity was calculated according to the following formula and 50% effective concentration (EC50) was calculated based on the relationship with the concentration of test sample. SOD-like activity(%)=[(1−(absorbance of test sample))/(absorbance of control)]×100\nEC50 was calculated from SOD-like activities in gradual concentrations of each sample."}}, "data": [{"substance": "catechin [Comparative Substance 2]", "values": [{"measurement": "EC50 in DPPH radical scavenging", "setting": "[1]", "result": 1.71, "unit": "µg/mL"}, {"measurement": "EC50 in SOD-like activity", "setting": "[2]", "result": 62.0, "unit": "µg/mL"}]}]}
